Source: patent US20190125712A1, “COMPOUND FOR ENHANCING ACTIVITY OF ANTIBIOTIC COMPOSITIONS AND OVERCOMING DRUG RESISTANCE” (SHOOLINI UNIVERSITY OF BIOTECHNOLOGY AND MANAGEMENT SCIENCES, priority 2015, published 2019)
Values after ≈ are worked out from the molar mass of the structure shown. Read-outs that look alike come from different tables or passages of the source. Peptide text beside a SMILES is read from it. * marks the point of attachment. βNA = c1ccc2cc(N*)ccc2c1

How the values were obtained:
[1] = test system: K. pneumonia Strain 52145 (Drug sensitive or control); experiment: MIC, ethyl gallate as activity enhancer of antibiotics, drug sensitive K. pneumonia; type: cell-based, Klebsiella pneumonia; conditions: for MIC: Klebsiella pneumoniae; for MIC Antibiotic + ethyl gallate: combination with ethyl gallate; for Minimum Inhibitory Concentration (MIC): group C: antibiotic + Ethyl gallate 1000 μg/ml; for Fold decrease in antibiotic concentration: on addition of ethyl gallate
Experimental: (§1) This was carried out to assess the potential of the compound to enhance antimicrobial activity and overcome antibacterial resistance.
(§2) The resistant & sensitive control strains of K. pneumonia were procured from Dr. Enrique Llobet, CIBERES, Bunyola, Spain, Dr. Mazzariol of Verona University, Italy and one sensitive control strain were procured from IMTECH, Chandigarh (Table-2). Pseudomonas aeruginosa control cultures (Sensitive & Resistant) were procured from Dr. Thilo Kohler, University of Geneva, and Department of Microbiology and Molecular Medicine Geneve, Switzerland and one sensitive control strain were procured from IMTECH, Chandigarh (Table-3).

[2] = test system: P. aeruginosa PS11 (Drug resistant); experiment: MIC, ethyl gallate as activity enhancer of antibiotics, drug resistant P. aeruginosa; type: cell-based, Pseudomonas aeruginosa; conditions: for MIC: strain PS11; for MIC Antibiotic + ethyl gallate: combination with ethyl gallate; for Fold decrease in antibiotic concentration: on addition of ethyl gallate
Experimental: as §1
K. pneumonia isolate was collected from Gian Sagar medical college, Patiala and characterized in Immuno-parasitoloy Lab, Shoolini University, Solan for multidrug resistance. P. aeruginosa drug resistant strain was collected from Gian Sagar medical college, Patiala and characterized in Immunoparasitoloy Lab, Shoolini University, Solan.

[3] = test system: K. pneumonia 1740 knockout (Drug resistant); type: cell-based, Klebsiella pneumonia; conditions: for MIC Antibiotic + ethyl gallate: combination with ethyl gallate; for MIC: group C: antibiotic + Ethyl gallate 1000 μg/ml, strain 1740 knockout; for Fold decrease in antibiotic concentration: on addition of ethyl gallate
Experimental: as §1, §2

[4] = test system: P. aeruginosa Strain MTCC-471 (Drug sensitive or control); experiment: MIC, ethyl gallate as activity enhancer of antibiotics, drug sensitive P. aeruginosa; type: cell-based, Pseudomonas aeruginosa; conditions: for MIC Antibiotic + ethyl gallate: combination with ethyl gallate; for Minimum Inhibitory Concentration (MIC): group C: antibiotic + Ethyl gallate 1000 μg/ml; for Minimum Inhibitory Concentration (MIC) / MIC: strain MTCC-471; for MIC: Pseudomonas aeruginosa, MTCC471, agent alone (group A ethyl gallate alone, group B antibiotics alone), read-out: Minimum Inhibitory Concentration (MIC); for Fold decrease in antibiotic concentration: on addition of ethyl gallate
Experimental: as §1, §2

Pseudomonas aeruginosa = conditions: against Pseudomonas aeruginosa; Barrett J F (2001); cited from earlier work
[5] = Solubility of the extracted compound; type: physicochemical; conditions: compound extracted from T. chebula
Experimental: Then column chromatography was performed on silica gel to extract the compound. 6 fractions for T. chebula plant were obtained by column chromatography. All fractions of T. chebula were subjected for their synergistic activity. The fraction showing synergistic activity was then characterized to know the physical properties of bioactive molecule and the molecular weight of bioactive molecule was determined by LCMS and the structure was elucidated by NMR.

[6] = agent alone (group A ethyl gallate alone, group B antibiotics alone), strain 52145, read-out: Minimum Inhibitory Concentration (MIC)
[7] = Sensitive Strain, K. pneumonia 52145
[8] = Pseudomonas aeruginosa, agent alone (group A ethyl gallate alone, group B antibiotics alone), read-out: MIC
[9] = Resistant Strain, P. aeruginosa PS11
[10] = group C: antibiotic + Ethyl gallate 1000 μg/ml
[11] = Resistant Strain, K. pneumonia 1740 knockout
[12] = Sensitive Strain, P. aeruginosa MTCC-471
[13] = Table 4 (K. pneumonia, both strains), agent alone, read-out: MIC

Structure (SMILES)	MIC [1, 6] [µg/mL]	MIC Antibiotic Alone [1, 7]	MIC Antibiotic + ethyl gallate [1, 7]	Minimum Inhibitory Concentration (MIC) ([1]; strain 52145) [µg/mL]	MIC [2, 8] [µg/mL]	MIC Antibiotic Alone [2, 9] [µg/mL]	MIC Antibiotic + ethyl gallate [2, 9] [µg/mL]	MIC [2, 10] [µg/mL]	MIC Antibiotic + ethyl gallate [3, 11] [µg/mL]	MIC [3] [µg/mL]	MIC Antibiotic + ethyl gallate [4, 12] [µg/mL]	Minimum Inhibitory Concentration (MIC) [4] [µg/mL]	MIC [1, 13] [µg/mL]	MIC [4] [µg/mL]	Fold decrease in antibiotic concentration [1, 7] [fold]	Fold decrease in antibiotic concentration [2, 9] [fold]	MIC Antibiotic Alone [3, 11] [µg/mL]	Fold decrease in antibiotic concentration [3, 11] [fold]	MIC Antibiotic Alone [4, 12] [µg/mL]	Fold decrease in antibiotic concentration [4, 12] [fold]	further results
O=C(O)c1cn(C2CC2)c2cc(N3CCNCC3)c(F)cc2c1=O [Ciprofloxacin]	0.06	0.060	0.003	0.003	2	2	1	1.00	0.003	0.003	0.06	0.060	–	–	–	–	–	–	–	–	–
N=C(N)NCCC[C@H](NC(=O)[C@@H](N)Cc1ccccc1)C(=O)Nc1ccc2ccccc2c1 [PAβN, L-phenylalanyl-L-arginyl-b naphthylamide] (H-Phe-Arg-βNA)	–	–	–	–	–	–	–	–	–	–	–	–	–	–	–	–	–	–	–	–	potentiation of the activity of levofloxacin (Pseudomonas aeruginosa): 8 fold
CCOC(=O)c1cc(O)c(O)c(O)c1 [Ethyl gallate, ethyl gallate]	2	–	–	–	2	–	–	–	–	–	–	–	2	0.06	–	–	–	–	–	–	MIC Ethyl gallate ([1]; Sensitive Strain, K. pneumonia 52145, ethyl gallate alone): 2.000; solubility [5]: soluble in methanol and water; MIC Ethyl gallate ([2]; Resistant Strain, P. aeruginosa PS11, ethyl gallate alone): 2 µg/mL; MIC Ethyl gallate ([3]; Resistant Strain, K. pneumonia 1740 knockout, ethyl gallate alone): 2 µg/mL (≈ 10.1 µM); MIC Ethyl gallate ([4]; Sensitive Strain, P. aeruginosa MTCC-471, ethyl gallate alone): 0.06 µg/mL
O=C(N[C@H](CO)[C@H](O)c1ccc([N+](=O)[O-])cc1)C(Cl)Cl [Chloramphenicol]	2	2.000	1.000	1.000	2	2	1	1.00	0.5	0.500	0.05	0.050	2	1	2	2	2 (≈ 6.19 µM)	4	1	20	–
CN(C)[C@@H]1C(O)=C(C(N)=O)C(=O)[C@@]2(O)C(O)=C3C(=O)c4c(O)cccc4[C@@](C)(O)[C@H]3C[C@@H]12 [Tetracycline]	2	2.000	0.500	0.500	2	2	0.5	0.50	0.5	0.500	0.06	0.060	2	0.125	4	4	2 (≈ 4.5 µM)	4	0.125	2	–
